Laboratory results as given in patent publication US20060211700A1, “(R)-8,9-dichloro-2,3,4,4a-tetrahydro-1H,6H-pyrazino[1,2-a]quinoxalin-5-one for controlling IOP and treating glaucoma” (Alcon, Inc., priority 2005, published 2006).

Legend:
[1] = tested on: lasered (hypertensive) eyes of conscious cynomolgus monkeys; assay: Acute IOP response in lasered (hypertensive) eyes of conscious cynomolgus monkeys; assay type: in vivo, cynomolgus monkey; details: for IOP % change / IOP Change mmHg: lasered eye; for IOP lowering efficacy (in words): dosed at 300 μg
Description: Acute IOP Response in Lasered (Hypertensive) Eyes of Conscious Cynomolgus Monkeys
Intraocular pressure (IOP) can be determined with an Alcon Pneumatonometer after light corneal anesthesia with 0.1% proparacaine. Eyes are washed with saline after each measurement. After a baseline IOP measurement, test compound is instilled in one 30 μL aliquot to the right eyes only of nine cynomolgus monkeys. Vehicle is instilled in the right eyes of six additional animals. Subsequent IOP measurements are taken at 1, 3, and 6 hours.
The above method was used to determine the IOP lowering efficacy of 8,9-dichloro-2,3,4,4a-tetrahydro-1H,6H-pyrazino[1,2-a]quinoxalin-5-one when dosed at 300 μg.
The same method was used to evaluate the IOP lowering ability of the R enantiomer of the Compound (substantially free of the S enantiomer), dosed at 300 μg.

[2] = biological target: T1, human serotonin receptor clone 5-HT2A (Homo sapiens, UniProt P28223); assay: In vitro functional response (aequorin luminescence) in CHO-K1 cells expressing 5-HT2A; assay type: cell-based; details: for Emax: CHO-K1, relative to the response of α-methyl-5-HT; for EC50: CHO-K1 cells, aequorin, Gα16
T1 construct: expressed in transfected cells; host or cells: CHO-K1
T1 sequence (P28223 whole entry): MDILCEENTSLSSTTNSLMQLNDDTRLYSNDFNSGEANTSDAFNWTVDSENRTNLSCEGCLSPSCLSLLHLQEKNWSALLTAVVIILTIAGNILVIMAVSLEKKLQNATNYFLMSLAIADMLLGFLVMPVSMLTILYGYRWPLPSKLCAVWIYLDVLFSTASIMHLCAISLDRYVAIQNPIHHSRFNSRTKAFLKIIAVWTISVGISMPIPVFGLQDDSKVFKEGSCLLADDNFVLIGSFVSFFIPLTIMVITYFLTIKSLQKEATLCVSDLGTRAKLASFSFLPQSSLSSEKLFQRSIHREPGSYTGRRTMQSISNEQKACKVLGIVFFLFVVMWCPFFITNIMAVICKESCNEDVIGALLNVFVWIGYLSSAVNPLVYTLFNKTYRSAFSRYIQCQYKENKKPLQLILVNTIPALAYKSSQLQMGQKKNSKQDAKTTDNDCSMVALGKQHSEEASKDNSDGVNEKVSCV
Description: (§1) In Vitro Functional Response at 5-HT2 Receptors
(§2) Functional response at the 5-HT2 receptor subtypes was determined using CHO-K1 cells stably expressing mitochondrially-targeted bioluminescent aequorin, Gα16, and one of either human serotonin receptor clone 5-HT2A, 5-HT2B, or 5-HT2C. Prior to testing, cells were loaded in suspension with coelenterazine for 4-16 hours and directly injected onto different concentrations of the test compound. Light emitted from the cells was measured 20-30 seconds following receptor activation. A luminometer was used to record luminescence in response to the test compound. The mean response signal at each of 8-11 different concentrations was integrated to provide an estimation of receptor activation, expressed as the EC50 value. The efficacy of the response (Emax) at the 5-HT2A and 5-HT2B receptors is expressed relative to the response of α-methyl-5-HT under the same assay conditions while the efficacy at 5-HT2C is expressed relative to the response of 5-HT.

[3] = biological target: T2, human serotonin receptor clone 5-HT2B (Homo sapiens, UniProt P41595); assay: In vitro functional response (aequorin luminescence) in CHO-K1 cells expressing 5-HT2B; assay type: cell-based; details: for Emax: CHO-K1, relative to the response of α-methyl-5-HT; for EC50: CHO-K1 cells, aequorin, Gα16
T2 construct: expressed in transfected cells; host or cells: CHO-K1
T2 sequence (P41595 whole entry): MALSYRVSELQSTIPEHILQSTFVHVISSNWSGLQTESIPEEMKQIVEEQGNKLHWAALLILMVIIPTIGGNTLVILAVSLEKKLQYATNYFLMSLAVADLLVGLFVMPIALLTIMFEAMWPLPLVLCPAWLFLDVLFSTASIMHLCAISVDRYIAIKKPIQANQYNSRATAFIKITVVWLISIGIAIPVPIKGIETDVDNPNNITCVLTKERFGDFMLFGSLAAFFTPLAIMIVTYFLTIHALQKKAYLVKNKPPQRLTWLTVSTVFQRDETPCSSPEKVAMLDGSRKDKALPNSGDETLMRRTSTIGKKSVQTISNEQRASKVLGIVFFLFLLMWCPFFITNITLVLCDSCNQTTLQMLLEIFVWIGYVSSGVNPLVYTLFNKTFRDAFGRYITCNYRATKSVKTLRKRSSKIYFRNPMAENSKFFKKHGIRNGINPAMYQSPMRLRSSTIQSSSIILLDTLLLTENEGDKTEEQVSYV
Description: as §1, §2

[4] = biological target: T3, human serotonin receptor clone 5-HT2C (Homo sapiens, UniProt P28335); assay: In vitro functional response (aequorin luminescence) in CHO-K1 cells expressing 5-HT2C; assay type: cell-based; details: for Emax: CHO-K1, relative to the response of 5-HT; for EC50: CHO-K1 cells, aequorin, Gα16
T3 construct: expressed in transfected cells; host or cells: CHO-K1
T3 sequence (P28335 33-458): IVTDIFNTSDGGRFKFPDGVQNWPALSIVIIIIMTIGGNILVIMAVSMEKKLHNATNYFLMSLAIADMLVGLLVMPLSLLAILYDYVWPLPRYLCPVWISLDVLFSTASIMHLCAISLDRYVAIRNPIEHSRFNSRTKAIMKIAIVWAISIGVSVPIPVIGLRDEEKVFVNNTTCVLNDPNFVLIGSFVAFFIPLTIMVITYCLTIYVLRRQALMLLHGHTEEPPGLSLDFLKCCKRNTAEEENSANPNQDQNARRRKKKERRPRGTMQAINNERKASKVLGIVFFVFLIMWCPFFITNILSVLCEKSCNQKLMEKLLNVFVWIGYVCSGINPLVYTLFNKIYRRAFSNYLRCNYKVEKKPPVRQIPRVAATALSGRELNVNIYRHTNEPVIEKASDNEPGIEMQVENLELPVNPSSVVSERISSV
Description: as §1, §2

5-HT2C receptor = biological target: T4, 5-HT2C receptor (Homo sapiens, UniProt P28335); details: R enantiomer versus S enantiomer; cited from earlier work
T4 sequence (P28335 33-458): T3 sequence (P28335 33-458)

[5] = 1 hr after topical dose of 300 μg (one 30 μL aliquot)
[6] = 3 hrs after topical dose of 300 μg (one 30 μL aliquot)
[7] = 6 hrs after topical dose of 300 μg (one 30 μL aliquot)

## O=C1Nc2cc(Cl)c(Cl)cc2N2CCNCC12 (racemic) [Racemic, 8,9-dichloro-2,3,4,4a-tetrahydro-1H,6H-pyrazino[1,2-a]quinoxalin-5-one]
[1]; [5]
  IOP % change: −5.7%
  IOP Change mmHg: −2.8 mmHg
[1]; [6]
  IOP % change: −21.9%
  IOP Change mmHg: −9.6 mmHg
[1]; [7]
  IOP % change: −29.3%
  IOP Change mmHg: −12.8 mmHg
[1]
  IOP lowering efficacy (in words): significant decrease in IOP
[2]
  Emax: 112%
  EC50: 37.5 nM
[3]
  Emax: 98%
  EC50: 76.8 nM
[4]
  Emax: 105%
  EC50: 4.2 nM

## O=C1Nc2cc(Cl)c(Cl)cc2N2CCNC[C@H]12 [R enantiomer, (R)-8,9-dichloro-2,3,4,4a-tetrahydro-1H,6H-pyrazino[1,2-a]quinoxalin-5-one]
[1]; [5]
  IOP % change: −12.9%
  IOP Change mmHg: −5.8 mmHg
[1]; [6]
  IOP % change: −26.3%
  IOP Change mmHg: −11.7 mmHg
[1]; [7]
  IOP % change: −34.7%
  IOP Change mmHg: −15.0 mmHg
[1]
  IOP lowering efficacy (in words): significant decrease in IOP
[2]
  Emax: 108%
  EC50: 20.5 nM
[3]
  Emax: 99%
  EC50: 31.6 nM
[4]
  Emax: 108%
  EC50: 2.6 nM
5-HT2C receptor
  potency relative to the S enantiomer at the 5-HT2C receptor: approximately 40 fold

## O=C1Nc2cc(Cl)c(Cl)cc2N2CCNC[C@@H]12 [S enantiomer]
[2]
  Emax: 96%
  EC50: 2260 nM
[3]
  Emax: 45%
  EC50: 2540 nM
[4]
  Emax: 105%
  EC50: 614 nM
